Data taken from PubChem BioAssay AID1259407 (Chemical Carcinogenesis Research Information System (CCRIS), 2018).
Calls of active or inactive are those of the source. No rule for the calls is given here.

System: CCRIS mutagenicity, Ames/micronucleus/aberration tests
Experiment: CCRIS mutagenicity studies
[1] = Test System: AMES SALMONELLA TYPHIMURIUM, Strain/Indicator: TA97, Metabolic Activation: HAMSTER, LIVER, S-9, AROCLOR 1254 (10 OR 30%), Method: PREINCUBATION
[2] = Test System: AMES SALMONELLA TYPHIMURIUM, Strain/Indicator: TA97, Metabolic Activation: NONE, Method: PREINCUBATION
[3] = Test System: AMES SALMONELLA TYPHIMURIUM, Strain/Indicator: TA97, Metabolic Activation: RAT, LIVER, S-9, AROCLOR 1254 (10 OR 30%), Method: PREINCUBATION
[4] = Test System: AMES SALMONELLA TYPHIMURIUM, Strain/Indicator: TA98, Metabolic Activation: HAMSTER, LIVER, S-9, AROCLOR 1254 (10 OR 30%), Method: PREINCUBATION
[5] = Test System: AMES SALMONELLA TYPHIMURIUM, Strain/Indicator: TA98, Metabolic Activation: NONE, Method: PREINCUBATION
[6] = Test System: AMES SALMONELLA TYPHIMURIUM, Strain/Indicator: TA98, Metabolic Activation: RAT, LIVER, S-9, AROCLOR 1254 (10 OR 30%), Method: PREINCUBATION
[7] = Test System: AMES SALMONELLA TYPHIMURIUM, Strain/Indicator: TA100, Metabolic Activation: NONE, Method: PREINCUBATION
[8] = Test System: AMES SALMONELLA TYPHIMURIUM, Strain/Indicator: TA1535, Metabolic Activation: HAMSTER, LIVER, S-9, AROCLOR 1254 (10 OR 30%), Method: PREINCUBATION
[9] = Test System: AMES SALMONELLA TYPHIMURIUM, Strain/Indicator: TA1535, Metabolic Activation: NONE, Method: PREINCUBATION
[10] = Test System: AMES SALMONELLA TYPHIMURIUM, Strain/Indicator: TA1535, Metabolic Activation: RAT, LIVER, S-9, AROCLOR 1254 (10 OR 30%), Method: PREINCUBATION
[11] = Test System: AMES SALMONELLA TYPHIMURIUM, Strain/Indicator: TA100, Metabolic Activation: NONE, Method: STANDARD PLATE

C=C(C)/C([O-])=N/[N+](C)(C)CC(C)O (stereo not given)
mutagenic call [1]: inactive; negative | mutagenic call [2]: inactive; negative | mutagenic call [3]: inactive; negative | mutagenic call [4]: inactive; negative | mutagenic call [5]: inactive; negative | mutagenic call [6]: inactive; negative | mutagenic call (Test System: AMES SALMONELLA TYPHIMURIUM, Strain/Indicator: TA100, Metabolic Activation: HAMSTER, LIVER, S-9, AROCLOR 1254 (10 OR 30%), Method: PREINCUBATION): inactive; negative | mutagenic call [7]: inactive; negative | mutagenic call (Test System: AMES SALMONELLA TYPHIMURIUM, Strain/Indicator: TA100, Metabolic Activation: RAT, LIVER, S-9, AROCLOR 1254 (10 OR 30%), Method: PREINCUBATION): inactive; negative | mutagenic call [8]: inactive; negative | mutagenic call [9]: inactive; negative | mutagenic call [10]: inactive; negative

O=c1[nH]c(=O)n([C@H]2C[C@H](O)[C@@H](CO)O2)cc1/C=C/Br
mutagenic call [2]: inactive; negative | mutagenic call (Test System: AMES SALMONELLA TYPHIMURIUM, Strain/Indicator: TA97, Metabolic Activation: RAT, LIVER, S-9, AROCLOR 1254, Method: PREINCUBATION): inactive; negative | mutagenic call [5]: inactive; negative | mutagenic call (Test System: AMES SALMONELLA TYPHIMURIUM, Strain/Indicator: TA98, Metabolic Activation: NONE, Method: STANDARD PLATE): inactive; negative | mutagenic call (Test System: AMES SALMONELLA TYPHIMURIUM, Strain/Indicator: TA98, Metabolic Activation: RAT, LIVER, S-9, AROCLOR 1254, Method: PREINCUBATION): inactive; negative | mutagenic call (Test System: AMES SALMONELLA TYPHIMURIUM, Strain/Indicator: TA98, Metabolic Activation: RAT, LIVER, S-9, AROCLOR 1254, Method: STANDARD PLATE): inactive; negative | mutagenic call [7]: inactive; negative | mutagenic call [11]: inactive; negative | mutagenic call (Test System: AMES SALMONELLA TYPHIMURIUM, Strain/Indicator: TA100, Metabolic Activation: RAT, LIVER, S-9, AROCLOR 1254, Method: PREINCUBATION): inactive; negative | mutagenic call (Test System: AMES SALMONELLA TYPHIMURIUM, Strain/Indicator: TA100, Metabolic Activation: RAT, LIVER, S-9, AROCLOR 1254, Method: STANDARD PLATE): inactive; negative | mutagenic call (Test System: AMES SALMONELLA TYPHIMURIUM, Strain/Indicator: TA102, Metabolic Activation: NONE, Method: PREINCUBATION): inactive; negative | mutagenic call (Test System: AMES SALMONELLA TYPHIMURIUM, Strain/Indicator: TA102, Metabolic Activation: RAT, LIVER, S-9, AROCLOR 1254, Method: PREINCUBATION): inactive; negative | mutagenic call (Test System: AMES SALMONELLA TYPHIMURIUM, Strain/Indicator: TA104, Metabolic Activation: NONE, Method: PREINCUBATION): inactive; negative | mutagenic call (Test System: AMES SALMONELLA TYPHIMURIUM, Strain/Indicator: TA104, Metabolic Activation: RAT, LIVER, S-9, AROCLOR 1254, Method: PREINCUBATION): inactive; negative | mutagenic call [9]: inactive; negative | mutagenic call (Test System: AMES SALMONELLA TYPHIMURIUM, Strain/Indicator: TA1535, Metabolic Activation: NONE, Method: STANDARD PLATE): inactive; negative | mutagenic call (Test System: AMES SALMONELLA TYPHIMURIUM, Strain/Indicator: TA1535, Metabolic Activation: RAT, LIVER, S-9, AROCLOR 1254, Method: PREINCUBATION): inactive; negative | mutagenic call (Test System: AMES SALMONELLA TYPHIMURIUM, Strain/Indicator: TA1535, Metabolic Activation: RAT, LIVER, S-9, AROCLOR 1254, Method: STANDARD PLATE): inactive; negative | mutagenic call (Test System: AMES SALMONELLA TYPHIMURIUM, Strain/Indicator: TA1537, Metabolic Activation: NONE, Method: PREINCUBATION): inactive; negative | mutagenic call (Test System: AMES SALMONELLA TYPHIMURIUM, Strain/Indicator: TA1537, Metabolic Activation: NONE, Method: STANDARD PLATE): inactive; negative | mutagenic call (Test System: AMES SALMONELLA TYPHIMURIUM, Strain/Indicator: TA1537, Metabolic Activation: RAT, LIVER, S-9, AROCLOR 1254, Method: PREINCUBATION): inactive; negative | mutagenic call (Test System: AMES SALMONELLA TYPHIMURIUM, Strain/Indicator: TA1537, Metabolic Activation: RAT, LIVER, S-9, AROCLOR 1254, Method: STANDARD PLATE): inactive; negative | mutagenic call (Test System: AMES SALMONELLA TYPHIMURIUM, Strain/Indicator: TA1538, Metabolic Activation: NONE, Method: PREINCUBATION): inactive; negative | mutagenic call (Test System: AMES SALMONELLA TYPHIMURIUM, Strain/Indicator: TA1538, Metabolic Activation: NONE, Method: STANDARD PLATE): inactive; negative | mutagenic call (Test System: AMES SALMONELLA TYPHIMURIUM, Strain/Indicator: TA1538, Metabolic Activation: RAT, LIVER, S-9, AROCLOR 1254, Method: PREINCUBATION): inactive; negative | mutagenic call (Test System: AMES SALMONELLA TYPHIMURIUM, Strain/Indicator: TA1538, Metabolic Activation: RAT, LIVER, S-9, AROCLOR 1254, Method: STANDARD PLATE): inactive; negative | mutagenic call (Test System: CHINESE HAMSTER OVARY, Strain/Indicator: CHO-K1-BH4 (HGPRT), Metabolic Activation: NONE): inactive; negative | mutagenic call (Test System: CHINESE HAMSTER V-79, Strain/Indicator: V-79/8-AZAGUANINE, Metabolic Activation: NONE): inactive; negative | mutagenic call (Test System: MOUSE LYMPHOMA, Strain/Indicator: L5178Y (TK+/TK-), Metabolic Activation: NONE, Method: SUSPENSION/PLATE): active; positive | mutagenic call (Test System: MOUSE LYMPHOMA, Strain/Indicator: L5178Y (TK+/TK-), Metabolic Activation: RAT, LIVER, S-9, AROCLOR 1254, Method: SUSPENSION/PLATE): inactive; negative | mutagenic call (Test System: UDS RAT PRIMARY HEPATOCYTES, Strain/Indicator: THY INCORP (NON-S-PHASE), Metabolic Activation: NONE): inactive; negative | mutagenic call (Test System: UDS RODENT HEPATOCYTES, Strain/Indicator: THY INCORP, Metabolic Activation: NONE): inactive; negative

COc1ccnc(=O)[nH]1
mutagenic call [11]: active; positive

N[C@@H](CS/C(Cl)=C(\Cl)C(Cl)=C(Cl)Cl)C(=O)O
mutagenic call [7]: active; positive | mutagenic call [11]: active; positive | mutagenic call (Test System: AMES SALMONELLA TYPHIMURIUM, Strain/Indicator: TA100, Metabolic Activation: RAT, KIDNEY, S-9, AROCLOR 1254, Method: STANDARD PLATE): active; positive | mutagenic call (Test System: AMES SALMONELLA TYPHIMURIUM, Strain/Indicator: TA2638, Metabolic Activation: NONE, Method: PREINCUBATION): active; positive

Cc1cc(=O)[nH]c(=S)[nH]1
mutagenic call [1]: inactive; negative | mutagenic call [2]: inactive; negative | mutagenic call [3]: inactive; negative | mutagenic call [4]: inactive; negative | mutagenic call [5]: inactive; negative | mutagenic call [6]: inactive; negative | mutagenic call (Test System: AMES SALMONELLA TYPHIMURIUM, Strain/Indicator: TA100, Metabolic Activation: HAMSTER, LIVER, S-9, AROCLOR 1254 (10%), Method: PREINCUBATION): inactive; negative | mutagenic call (Test System: AMES SALMONELLA TYPHIMURIUM, Strain/Indicator: TA100, Metabolic Activation: HAMSTER, LIVER, S-9, AROCLOR 1254 (30%), Method: PREINCUBATION): inactive; negative | mutagenic call [7]: inactive; negative | mutagenic call (Test System: AMES SALMONELLA TYPHIMURIUM, Strain/Indicator: TA100, Metabolic Activation: RAT, LIVER, S-9, AROCLOR 1254 (10%), Method: PREINCUBATION): inactive; negative | mutagenic call (Test System: AMES SALMONELLA TYPHIMURIUM, Strain/Indicator: TA100, Metabolic Activation: RAT, LIVER, S-9, AROCLOR 1254 (30%), Method: PREINCUBATION): inactive; negative | mutagenic call [8]: inactive; negative | mutagenic call [9]: inactive; negative | mutagenic call [10]: inactive; negative

Nc1ccc(-c2ccc(N)cc2[N+](=O)[O-])c([N+](=O)[O-])c1
mutagenic call [5]: active; positive | mutagenic call (Test System: AMES SALMONELLA TYPHIMURIUM, Strain/Indicator: TA98, Metabolic Activation: RAT, LIVER, S-9, KANECHLOR 500, Method: PREINCUBATION): active; positive
